# Results from patent publication US10342799B2, “Compositions and methods for prophylaxis and therapy for Meniere's disease” (priority 2013, dated 2019).
# System: patients diagnosed with active definite MD (Ménière's vertigo attacks)
# Test: Retrospective and prospective review of active definite Meniere's disease patients treated with lamotrigine (vertigo attacks, DHI, side effects)
# Type: in vivo, human patients
# Protocol: Population. A retrospective and prospective review was performed on patients who were older than 18 years old, diagnosed with active definite MD at the Dent Dizziness, Balance and Tinnitus Center and treated with lamotrigine. Definite MD is defined as two or more episodes of vertigo that last for ≥20 minutes with documented hearing loss on at least one occasion, tinnitus and/or aural fullness, and other causes excluded. Active MD status requires patients to experience at least three vertigo attacks during the three months prior to treatment.
# Clinical data. Data collected included demographic information, history of MD, prior medical treatment, clinical diagnosis, clinical presentation, stage of the disease, and frequency of Ménière's vertigo attacks prior to and after treatment. The staging of MD was based on the four-tone average of the pure-tone thresholds at 0.5, 1, 2 and 3 kHz of the worst audiogram during the six months before treatment. The questionnaires used were the Dizziness Handicap Inventory (DHI) and the Center's Dizziness Questionnaire. Current or past history of anxiety/depression, migraine problems, and use of anti-anxiety medication were also analyzed.
# Outcome variable. The primary outcome measure was the reduction of Ménière's vertigo attacks at both three months after lamotrigine initiation (primarily the titration period) and three months after treatment at maintenance dosage. Secondary outcome measures included DHI scores and patient reports of clinical improvement. Data were confirmed by review of physicians' notes, vestibular and audiogram testing results, and supporting data. Means and standard deviations (SDs) were calculated for all continuous variables and proportions for all categorical variables. The primary research questions were whether or not lamotrigine led to a reduction of Ménière's vertigo attacks and whether or not lamotrigine led to improvement in quality of life for MD patients.
# Statistical analysis. The overall difference in Meniere's vertigo attacks among 3 months pre-treatment, 3 months of titration, and 3 months of maintenance treatment was evaluated by Friedman's test, which is a nonparametric test for treatment differences in a randomized complete block design. The Wilcoxon signed rank sum test, which is the nonparametric version of a paired sample t-test, was used for the pairwise comparisons of Meniere's vertigo attacks from the three different time periods as well as DHI before and after treatment. Fisher's exact test was used to evaluate whether treatment effectiveness was affected by migraine or anxiety comorbidities. For all of these statistical tests, the tests were two-sided, and the level of significance was set to 0.05. Differences were considered significant if the p-value was less than 0.05.
# Lamotrigine titration. All 45 patients began a titration of lamotrigine of 25 mg BID for two weeks to 50 mg BID for two weeks. Final maintenance dosages varied between 25 mg BID and 200 mg BID due to individual patient tolerance and response; 29 patients were on either 100 mg BID or 150 mg BID maintenance dosages (64%). There was one patient who was lost to follow-up. There were four patients who discontinued lamotrigine due to side effects: one experienced stomachaches and diarrhea, one complained of hallucinations, and two developed rashes.
# [1] = mean (SD), three months prior to treatment: 12.7 (SD 11.6)
# [2] = number of patients, value in brackets
structure (smiles),measurement,setting,value
"Nc1nnc(-c2cccc(Cl)c2Cl)c(N)n1 [Lamotrigine, 6-(2,3-Dichlorophenyl)-1,2,4-triazine-3,5-diamine]",vertigo attack reduction and remission: influence of migraine comorbidity,"Fisher's exact test, p=0.414",not affected
same,vertigo attack reduction and remission: influence of anxiety/depression comorbidity,"Fisher's exact test, p=1.000",not affected
same,patients who reported improvement and had anxiety/depression disorder,among the 38 improved patients,28 patients
same,patients who reported improvement and had migraine,among the 38 improved patients,20 patients
same,mean post-treatment DHI score,"mean (SD), prior treatment DHI 47.6 (SD 19.6)",28.6 (SD 20.9)
same,mean number of vertigo attacks after three months of maintenance dosage,[1],1.9 (SD 4.6)
same,mean number of vertigo attacks three months after initiation (primarily the titration period),[1],4.5 (SD 6.2)
same,"Side effect, MD with migraine",number of patients,1
same,"Side effect, MD without migraine",number of patients,3
same,"Side effect, Total",number of patients,4
same,"Vertigo attack free, MD with migraine",number of patients,11
same,"Vertigo attack free, MD without migraine",number of patients,10
same,"Vertigo attack free, Total",number of patients,21
same,"Vertigo reduced, MD with migraine",number of patients,9
same,"Vertigo reduced, MD without migraine",number of patients,8
same,"Vertigo reduced, Total",number of patients,17
same,"Vertigo unchanged, MD with migraine",number of patients,1 (1)
same,"Vertigo unchanged, MD without migraine",number of patients,1 (1)
same,"Vertigo unchanged, Total",number of patients,2
same,"Side effect, MD with anxiety",[2],3
same,"Side effect, MD without anxiety",[2],1
same,"Vertigo attack free, MD with anxiety",[2],15
same,"Vertigo attack free, MD without anxiety",[2],6
same,"Vertigo reduced, MD with anxiety",[2],13
same,"Vertigo reduced, MD without anxiety",[2],4
same,"Vertigo unchanged, MD with anxiety",[2],1 (1)
same,"Vertigo unchanged, MD without anxiety",[2],1 (1)
same,patients with complete resolution of Ménière's vertigo attacks during the three month maintenance period,of 38 improved patients,21 patients
same,patients who discontinued lamotrigine due to side effects,of 45 patients,four
same,patients who discontinued with hallucinations,of 45 patients,one
same,patients who discontinued with rashes,of 45 patients,two
same,patients who discontinued with stomachaches and diarrhea,of 45 patients,one
same,proportion of patients who reported an improvement in Ménière's vertigo attacks,out of all 45 study patients,84%
same,patients who reported an improvement in Ménière's vertigo attacks with lamotrigine treatment,"out of all 45 study patients, maintenance 25-200 mg BID",38 patients
same,"post-DHI score less than pre-DHI score, on average",p=0.001,19 points
same,vertigo attacks during 3 months of maintenance relative to 3 months of titration,p=0.04,significantly fewer
same,vertigo attacks during the two treatment periods compared to the 3 months prior to treatment,"titration and maintenance periods, p<0.001, p<0.001, Wilcoxon signed rank",significantly fewer
